Assay: Analytical evaluation of the BPO release out of the silica shell (time for yellow color appearance, KI/sodium thiosulfate)
Format: physicochemical
Conditions: free (uncoated) BPO, 0 coatings, no aging
Method: The release profile of BPO out of the silica shell was done in a water/Acetonitrile solution, which is capable of dissolving BPO. The method is based on the strong oxidation properties of BPO. BPO reacts with potassium iodine (KI) ions to form I2, which gives a color reaction. I2 is than reduces back to I^− using sodium thiosulfate (STS) to eliminate the color. Each 12.11 mg of oxidizing BPO was reduced by 1 ml of 0.1M STS.
Solution A is composed of deionized water, acetone, 0.1M STS solution and KI.
The following table includes the ratios between the components in order to distinguish a certain % of released BPO.
Suspension B, preparation of BPO: weigh 200 mg of BPO as 100% (1 g as 20% suspension) into 5 ml measuring bottle and fill with deionized water up to 5 ml.
Procedure: Into 50 ml glass beaker add 40 ml of solution A and the 5 ml of suspension B and measure the time for yellow color appearance.

With `O=C(OOC(=O)c1ccccc1)c1ccccc1` [Free BPO, benzoyl peroxide] the “time for 30 % of BPO released” value was 0.5 min and the “time for 90 % of BPO released” value was 1 min.

Reference: patent US12350382B2, “Method for preparing particles comprising metal oxide coating and particles with metal oxide coating” (priority 2007, dated 2025)
